Assay results as given in patent US20240252508A1, “Novel glucose uptake inhibitors for use in the treatment of cancer” (NOVELYEAST BV, priority 2021, published 2024).

Assays:
tps1Δ cells = experiment: Growth rescue of tps1Δ strain on glucose (growth curves, 2% galactose medium); assay type: cell-based, S. cerevisiae; settings: 100 μM compound, 2.5 mM glucose
How it was run: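 tps1Δ yeast pregrown in Complete Synthetic medium with 2% galactose, washed, resuspended to OD 0.1; compounds added 10 min before glucose. Growth followed as OD595 every 30 min at 30 °C in at least three technical replicates.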

[1] = test system: A549 lung adenocarcinoma cells; experiment: A549 cell proliferation / growth inhibition; assay type: cell-based, human; settings: for Selected from primary screen for growth inhibition of A549 cells at 50 μM: 50 μM compound, 1 mM glucose; for Selected for having an IC50 ratio (10 mM glucose: 1 mM glucose) of A549 growth higher than WBC-A: IC50 on 10 mM vs 1 mM glucose, compared with WBC-A
How it was run: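 A549 growth screened in RPMI with 1 mM glucose, compounds at 50 μM; cell number from counts of Hoechst-stained nuclei after 3 days. Growth curves also followed by IncuCyte phase-contrast confluency over 3–5 days (1000–1500 cells/well), DMSO ≤0.1%, ≥4 technical repeats.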

Compound	Rescue of the tps1Δ strain on 2.5 mM glucose at 100 μM (tps1Δ cells)	Selected from primary screen for growth inhibition of A549 cells at 50 μM [1]	Selected for having an IC50 ratio (10 mM glucose: 1 mM glucose) of A549 growth higher than WBC-A [1]
COC(=O)CSc1nc(C)nc2scc(-c3cccs3)c12 [53A]	Yes	No	
Cc1nc(SCC(=O)NCC(F)(F)F)c2c(-c3cccs3)csc2n1 [31B]	No	No	
Cc1nc(Sc2nnc3sc4ccccc4n23)c2c3c(sc2n1)CCCC3 [51C]	No	No	
Cc1nc(Sc2nnc3n2CCCCC3)c2c(-c3cccs3)csc2n1 [A]	Yes	Yes	
Cc1nc(SCC(=O)N2CCOCC2)c2ccsc2n1 [78C]	No	No	
Cn1nnnc1Sc1ncnc2scc(-c3ccc(Cl)cc3)c12 [48A]	No	Yes	Lower IC50 ratio
Cc1cc(C)nc(Sc2nc(CN3CCOCC3)nc3scc(-c4cccs4)c23)n1 [64C]	No	Yes	Lower IC50 ratio
CC(Sc1nnc2n1CCCCC2)c1nc2scc(-c3cccs3)c2c(=O)[nH]1 (centres unmarked) [6A]	No	No	
Cc1nc(Sc2nnc(-c3ccoc3C)n2C)c2c(-c3cccs3)csc2n1 [63C]	No	No	
Cc1nc(SCC(=O)OC(C)(C)C)c2c3c(sc2n1)CCCC3 [31C]	No	No	
Cc1nnc(SCC(=O)NCc2ccco2)c2c1cnn2-c1ccccc1 [71C]	No	No	
CCOC(=O)CSc1nnc(C)c2cnn(-c3ccccc3)c12 [74C]	No	No	
c1ccc(-c2csc3ncnc(Sc4nnc5ccccn45)c23)cc1 [49A]	No	Yes	Lower IC50 ratio
Cc1sc2nc(CN3CCC(C)CC3)nc(Sc3nnc(C4CC4)n3CCC(N)=O)c2c1C [17A]	No	Yes	Lower IC50 ratio
Cc1sc2nc(CSc3ccccc3)nc(NCc3nnc4n3CCCCC4)c2c1C [9A]	No	No	
CSc1nnc(Sc2nc(C)nc3scc(-c4cccs4)c23)s1 [29A]	No	No	
CCC(c1nnc(Sc2nc(C)nc3scc(-c4cccs4)c23)n1Cc1ccccc1)N(C)C (centres unmarked) [52A]	No	Yes	Lower IC50 ratio
Cc1nc(N(C)CC(=O)N2CCN(C)CC2)c2c(-c3cccs3)csc2n1 [10B]	No	No	
Cc1nc(SCC(=O)Nc2ccccc2C#N)c2c(-c3cccs3)csc2n1 [19B]	No	No	
Cc1nc(Sc2nnc(C)[nH]2)c2c(-c3ccccc3)csc2n1 [13A]	No	No	
OCCSc1ncnc2sc3c(c12)CCCC3 [27C]	No	No	
CCNc1nnc(Sc2nc(C)nc3scc(-c4cccs4)c23)s1 [46C]	No	No	
Cc1nc(NCCCN2CCC(O)CC2)c2c(-c3cccs3)csc2n1 [16B]	No	No	
Cc1sc2ncnc(Sc3nnc4ccccn34)c2c1C [58A]	No	No	
Cc1nc(SCC(=O)N2CCC(C)Sc3ccccc32)c2c(-c3cccs3)csc2n1 (centres unmarked) [43B]	No	No	

Compound	Rescue of the tps1Δ strain on 2.5 mM glucose at 100 μM (tps1Δ cells)	Selected from primary screen for growth inhibition of A549 cells at 50 μM [1]	Selected for having an IC50 ratio (10 mM glucose: 1 mM glucose) of A549 growth higher than WBC-A [1]
Cc1nc(S)c2c(-c3cccs3)csc2n1 [67A]	No	No	
Cc1nnc(Sc2nc(CN3CCOCC3)nc3scc(-c4cccs4)c23)n1C [6C]	No	Yes	Lower IC50 ratio
Cc1nc(Sc2nnc[nH]2)c2cc(-c3ccccc3)sc2n1 [59A]	No	No	
COc1ccccc1NC(=O)CSc1ncnc2scc(-c3ccccc3)c12 [11B]	No	No	
Cc1nnc(Sc2nc(-c3cccs3)nc3scc(-c4ccccc4)c23)n1N [8A]	No	No	
COc1ccc(-c2csc3nc(C)nc(Sc4nnc(C)n4C)c23)cc1OC [5A]	No	No	
Cc1nc(SCC(N)=O)c2c3c(sc2n1)CCC3 [49C]	No	No	
COCc1nc(Sc2nnc(CN)n2C)c2c(-c3ccccc3)csc2n1 [40A]	No	No	
Cc1nnc(SCC(=O)N2CCOCC2)c2c1cnn2-c1ccccc1 [70C]	No	No	
CCOC(=O)c1sc2nc(C)nc(SCC(N)=O)c2c1C [59C]	No	No	
c1ccn2c(Sc3ncnc4sc5c(c34)CCC5)nnc2c1 [60A]	No	No	
COCCCNC(=O)CSc1nc(C)nc2scc(-c3cccs3)c12 [15B]	Yes	No	
Cc1nc(SCCN2CCOCC2)c2cc(-c3ccccc3)sc2n1 [41C]	No	Yes	Lower IC50 ratio
Cc1nc(SCC(=O)NC(=O)NCCC(C)C)c2c(-c3cccs3)csc2n1 [49B]	No	Yes	Lower IC50 ratio
Cc1nc(SCC(=O)N2CCOCC2)c2c3c(sc2n1)CCC3 [65C]	No	No	
Cc1nc(SCC(=O)N2CCOCC2)c2cc(-c3ccccc3)sc2n1 [28C]	No	No	
Cc1nc(Sc2cccc(C(F)(F)F)c2)c2c(-c3cccs3)csc2n1 [25C]	No	Yes	Lower IC50 ratio
COc1cccc(NC(=O)CSc2ncnc3sc(C)c(-c4ccccc4)c23)c1 [12B]	No	Yes	Lower IC50 ratio
CCn1nnnc1Sc1ncnc2scc(-c3ccc(C)cc3)c12 [61A]	No	Yes	Lower IC50 ratio
Cc1nc(Sc2nnc(C(F)(F)F)n2C)c2c(-c3cccs3)csc2n1 [54C]	Yes	Yes	Lower IC50 ratio
Cc1nc(SCC(C#N)CCC#N)c2c(-c3cccs3)csc2n1 (centres unmarked) [21C]	No	No	
Cc1nc(SCC(=O)NCC(=O)Nc2cccc(C)c2C)c2c(-c3cccs3)csc2n1 [41B]	No	No	
CCCNC(=O)CN1CCC(Nc2nc(C)nc3scc(-c4cccs4)c23)CC1 [30B]	No	No	
Cc1nc(NCC(=O)N2CCCC2)c2c(-c3cccs3)csc2n1 [24B]	No	Yes	Lower IC50 ratio
Cc1nc2scc(-c3cccs3)c2c(=O)[nH]1 [48C]	No	No	
